According to PubChem BioAssay AID2060506 (Molecular Pharmacology Branch, DTP, NCI, 2025):

Test system: 598228-144-R-J1-PDC complex spheroid viability
Assay: Anticancer human tumor 598228-144-R-J1-PDC patient-derived serous endometrial adenocarcinoma cell line growth inhibition [GQUAD]
Conditions: for IC50: curve of first compound; for viability, T/C: stronger effect = lower value
How it was run: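 Tumor cells were grown as complex spheroids with HUVEC endothelial cells and mesenchymal stem cells as stroma. G-quadruplex stabilizers were combined with targeted agents over half-log dilutions from near the clinical Cmax, or from 10 microM.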

[1] = second compound 0.0316 µM, first compound 0.0316 µM
[2] = second compound 0.0316 µM, first compound 0.1 µM
[3] = second compound 0.0316 µM, first compound 0.316 µM
[4] = second compound 0.0316 µM, first compound 1 µM
[5] = second compound 0.0316 µM, first compound 3.16 µM
[6] = second compound 0.0316 µM, first compound 10 µM
[7] = second compound 0.1 µM, first compound 0.0316 µM
[8] = second compound 0.1 µM, first compound 0.1 µM
[9] = second compound 0.1 µM, first compound 0.316 µM
[10] = second compound 0.1 µM, first compound 1 µM
[11] = second compound 0.1 µM, first compound 3.16 µM
[12] = second compound 0.1 µM, first compound 10 µM
[13] = second compound 0.316 µM, first compound 0.0316 µM
[14] = second compound 0.316 µM, first compound 0.1 µM
[15] = second compound 0.316 µM, first compound 0.316 µM
[16] = second compound 0.316 µM, first compound 1 µM
[17] = second compound 0.316 µM, first compound 3.16 µM
[18] = second compound 0.316 µM, first compound 10 µM
[19] = second compound 1 µM, first compound 0.0316 µM
[20] = second compound 1 µM, first compound 0.1 µM
[21] = second compound 1 µM, first compound 0.316 µM
[22] = second compound 1 µM, first compound 1 µM
[23] = second compound 1 µM, first compound 3.16 µM
[24] = second compound 1 µM, first compound 10 µM
[25] = second compound 3.16 µM, first compound 0.0316 µM
[26] = second compound 3.16 µM, first compound 0.1 µM
[27] = second compound 3.16 µM, first compound 0.316 µM
[28] = second compound 3.16 µM, first compound 1 µM
[29] = second compound 3.16 µM, first compound 3.16 µM
[30] = second compound 3.16 µM, first compound 10 µM
[31] = second compound 10 µM, first compound 0.0316 µM
[32] = second compound 10 µM, first compound 0.1 µM
[33] = second compound 10 µM, first compound 0.316 µM
[34] = second compound 10 µM, first compound 1 µM
[35] = second compound 10 µM, first compound 3.16 µM
[36] = second compound 10 µM, first compound 10 µM
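Further: spheroids exposed to the agents for one week before reading.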
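Wherever viability, T/C is given: percent of vehicle DMSO control viability so 100% = untreated growth.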

CC1COCCN1c1cc(C2(O)CC3CCC(C2)O3)c2cnn(-c3ccn[nH]3)c2n1 (stereo not drawn) + Cc1[nH]c2ccc(F)cc2c1-c1nc2c3cccnc3c3ncccc3c2[nH]1
IC50 (second compound 0.0316 µM): 144 nM | IC50 (second compound 0.1 µM): 95 nM | IC50 (second compound 0.316 µM): < 31.6 nM | IC50 (second compound 1 µM): < 31.6 nM | IC50 (second compound 3.16 µM): < 31.6 nM | IC50 (second compound 10 µM): < 31.6 nM | viability, T/C [1]: 68% | viability, T/C [2]: 48% | viability, T/C [3]: 39% | viability, T/C [4]: 40.7% | viability, T/C [5]: 28% | viability, T/C [6]: 14% | viability, T/C [7]: 61.3% | viability, T/C [8]: 40.1% | viability, T/C [9]: 46.8% | viability, T/C [10]: 34.9% | viability, T/C [11]: 31.5% | viability, T/C [12]: 17.4% | viability, T/C [13]: 48.8% | viability, T/C [14]: 44.1% | viability, T/C [15]: 44.2% | viability, T/C [16]: 37.6% | viability, T/C [17]: 28.3% | viability, T/C [18]: 12.6% | viability, T/C [19]: 48.9% | viability, T/C [20]: 37.1% | viability, T/C [21]: 38% | viability, T/C [22]: 27.4% | viability, T/C [23]: 19.9% | viability, T/C [24]: 12.7% | viability, T/C [25]: 36.8% | viability, T/C [26]: 38.8% | viability, T/C [27]: 30.3% | viability, T/C [28]: 26.7% | viability, T/C [29]: 18.3% | viability, T/C [30]: 8.63% | viability, T/C [31]: 41.4% | viability, T/C [32]: 37.4% | viability, T/C [33]: 31.6% | viability, T/C [34]: 29.7% | viability, T/C [35]: 25.4% | viability, T/C [36]: 12.1%

Nc1ccn(C2OC(CO)C(O)C2(F)F)c(=O)n1 (stereo not drawn) + Cc1cnc(CNC(=O)c2c(=O)c3ccc(N4CCCN(C)CC4)nc3n3c2sc2ccccc23)cn1
IC50 (second compound 0.0316 µM): 71.2 nM | IC50 (second compound 0.1 µM): 52.6 nM | IC50 (second compound 0.316 µM): 68.4 nM | IC50 (second compound 1 µM): < 31.6 nM | IC50 (second compound 3.16 µM): < 31.6 nM | IC50 (second compound 10 µM): < 31.6 nM | viability, T/C [1]: 65.9% | viability, T/C [2]: 42.8% | viability, T/C [3]: 41.7% | viability, T/C [4]: 42.5% | viability, T/C [5]: 43.6% | viability, T/C [6]: 44.6% | viability, T/C [7]: 58.7% | viability, T/C [8]: 38.4% | viability, T/C [9]: 45.7% | viability, T/C [10]: 46.6% | viability, T/C [11]: 40% | viability, T/C [12]: 39% | viability, T/C [13]: 63.5% | viability, T/C [14]: 43.8% | viability, T/C [15]: 38.2% | viability, T/C [16]: 44.9% | viability, T/C [17]: 44.8% | viability, T/C [18]: 39.1% | viability, T/C [19]: 58.3% | viability, T/C [20]: 41.6% | viability, T/C [21]: 47.5% | viability, T/C [22]: 39.7% | viability, T/C [23]: 54.7% | viability, T/C [24]: 46.8% | viability, T/C [25]: 60.2% | viability, T/C [26]: 43.2% | viability, T/C [27]: 36.4% | viability, T/C [28]: 26.4% | viability, T/C [29]: 50.5% | viability, T/C [30]: 37% | viability, T/C [31]: 48.5% | viability, T/C [32]: 27.7% | viability, T/C [33]: 23.3% | viability, T/C [34]: 30.2% | viability, T/C [35]: 38.8% | viability, T/C [36]: 18.6%

CCc1c2c(nc3ccc(O)cc13)-c1cc3c(c(=O)n1C2)COC(=O)[C@]3(O)CC + Cc1[nH]c2ccc(F)cc2c1-c1nc2c3cccnc3c3ncccc3c2[nH]1
IC50 (second compound 0.0316 µM): 21 nM | IC50 (second compound 0.1 µM): 13.9 nM | IC50 (second compound 0.316 µM): 37.2 nM | IC50 (second compound 1 µM): 2.57 nM | IC50 (second compound 3.16 µM): < 0.999 nM | IC50 (second compound 10 µM): 2.09 nM | viability, T/C (second compound 0.0316 µM, first compound 0.000999 µM): 74.7% | viability, T/C (second compound 0.0316 µM, first compound 0.00316 µM): 73.5% | viability, T/C (second compound 0.0316 µM, first compound 0.00999 µM): 53.8% | viability, T/C [1]: 42.9% | viability, T/C (second compound 0.0316 µM, first compound 0.0999 µM): 37.9% | viability, T/C [3]: 13.8% | viability, T/C (second compound 0.1 µM, first compound 0.000999 µM): 67% | viability, T/C (second compound 0.1 µM, first compound 0.00316 µM): 67.6% | viability, T/C (second compound 0.1 µM, first compound 0.00999 µM): 55.4% | viability, T/C [7]: 34.9% | viability, T/C (second compound 0.1 µM, first compound 0.0999 µM): 31.3% | viability, T/C [9]: 19.5% | viability, T/C (second compound 0.316 µM, first compound 0.000999 µM): 75.9% | viability, T/C (second compound 0.316 µM, first compound 0.00316 µM): 62.7% | viability, T/C (second compound 0.316 µM, first compound 0.00999 µM): 66.3% | viability, T/C [13]: 53.4% | viability, T/C (second compound 0.316 µM, first compound 0.0999 µM): 34.3% | viability, T/C [15]: 21.4% | viability, T/C (second compound 1 µM, first compound 0.000999 µM): 55% | viability, T/C (second compound 1 µM, first compound 0.00316 µM): 47.3% | viability, T/C (second compound 1 µM, first compound 0.00999 µM): 43% | viability, T/C [19]: 37.9% | viability, T/C (second compound 1 µM, first compound 0.0999 µM): 27.8% | viability, T/C [21]: 17.8% | viability, T/C (second compound 3.16 µM, first compound 0.000999 µM): 40.6% | viability, T/C (second compound 3.16 µM, first compound 0.00316 µM): 36.1% | viability, T/C (second compound 3.16 µM, first compound 0.00999 µM): 29.7% | viability, T/C [25]: 29.2% | viability, T/C (second compound 3.16 µM, first compound 0.0999 µM): 13.1% | viability, T/C [27]: 8.4% | viability, T/C (second compound 10 µM, first compound 0.000999 µM): 57% | viability, T/C (second compound 10 µM, first compound 0.00316 µM): 45.1% | viability, T/C (second compound 10 µM, first compound 0.00999 µM): 38.8% | viability, T/C [31]: 29.7% | viability, T/C (second compound 10 µM, first compound 0.0999 µM): 24.1% | viability, T/C [33]: 20.4%

O=c1[nH]cc(F)c(=O)[nH]1 + Cc1[nH]c2ccc(F)cc2c1-c1nc2c3cccnc3c3ncccc3c2[nH]1
IC50 (second compound 0.0316 µM): > 10000 nM | IC50 (second compound 0.1 µM): > 10000 nM | IC50 (second compound 0.316 µM): > 10000 nM | IC50 (second compound 1 µM): > 10000 nM | IC50 (second compound 3.16 µM): < 31.6 nM | IC50 (second compound 10 µM): > 10000 nM | viability, T/C [1]: 106% | viability, T/C [2]: 112% | viability, T/C [3]: 90.2% | viability, T/C [4]: 94.3% | viability, T/C [5]: 89.6% | viability, T/C [6]: 81.4% | viability, T/C [7]: 97.4% | viability, T/C [8]: 102% | viability, T/C [9]: 85.1% | viability, T/C [10]: 109% | viability, T/C [11]: 91.8% | viability, T/C [12]: 93.9% | viability, T/C [13]: 98.6% | viability, T/C [14]: 99.9% | viability, T/C [15]: 74.9% | viability, T/C [16]: 85.8% | viability, T/C [17]: 70.4% | viability, T/C [18]: 67.2% | viability, T/C [19]: 57.5% | viability, T/C [20]: 66.9% | viability, T/C [21]: 58% | viability, T/C [22]: 55.5% | viability, T/C [23]: 54.5% | viability, T/C [24]: 60.7% | viability, T/C [25]: 38.1% | viability, T/C [26]: 39.2% | viability, T/C [27]: 49.5% | viability, T/C [28]: 48.1% | viability, T/C [29]: 48.8% | viability, T/C [30]: 47% | viability, T/C [31]: 66.8% | viability, T/C [32]: 62.6% | viability, T/C [33]: 63.8% | viability, T/C [34]: 60.8% | viability, T/C [35]: 57.4% | viability, T/C [36]: 54.2%
